# Experimental data taken from patent publication US5026688A (Administrators of the Tulane Educational Fund, priority 1988, dated 1991).
# Where two headings read alike, the source gives them in different places.
# Key:
# reverse transcriptase = settings: cited from earlier work
# H9 cells = test: uptake of radiolabelled drug by H9 cells; type: in vitro ADME; settings: for cellular uptake relative to AZT, in words: H9 cells (FIGS. 6, 7)
# Procedure: The reaction was stopped by centrifugation at 13,000×g for 1 min. The cell free supernatant was discarded by aspiration and the cell pellet was washed with ice cold PBS to remove any traces of free radioactive drug. The cell pellet was resuspended in PBS and counted for radioactivity in a Tri-carb Packard liquid scintillation analyzer Model 1500 (Packard Instruments Co., Dowers Grove, Ill.) and the percentage of radioactivity was calculated. (All experiments were done in duplicate and repeated at least three times).
# [1] = test system: peripheral blood lymphocytes; test: uptake of radiolabelled drug by peripheral blood lymphocytes (PBL); type: in vitro ADME
# Procedure: DP-AZT was therefore tested to determine if the problem of rapid elimination and inadequate permeability could be overcome.
# PBL from HIV seronegative donors were also separated by standard Ficol-Hypaque gradient centrifugation. The lymphocytes were grown in RPMI 1640 supplemented with 15% heat-inactivated FBS, 100 U/ml penicillin, 100 μg/ml streptomycin and 2 μg/ml PHA. The cells were incubated for 4 days at 37° C. and uptake studies were done according to the procedure described above for H9 cells.
# [2] = test system: peripheral blood lymphocytes; test: hydrolysis of DP-AZT to AZT in PBL; type: in vitro ADME; settings: 500 μM DP-[3H]-AZT, 5×10^5 PBL, 37° C., 4 h
# Procedure: (§1) In contrast, bone marrow cells were able to hydrolyze only 50% of the pro-drug at the end of 4 hours of incubation.
# Suspensions of 5×10^5 PBL (100 μl) in Eppendorf tubes were mixed with 100 μl of 500 μM DP-AZT and incubated at 37° C. At various time intervals (0 to 4 hrs), cell pellets were collected after centrifugation at 13,000×g for 1 min, washed with PBS and extracted with ice-cold 0.2 M perchloric acid. The acid extracts were clarified by centrifugation, neutralized with KOH, centrifuged to remove insoluble potassium perchlorate, evaporated to dryness under reduced pressure (Buchler Evapo-Mix apparatus) and constituted with 200 μl of methanol (Zimmerman et al., J. Biol. Chem. 262:5748, 1987).
# [3] = hydrolysis of DP-AZT in mouse bone marrow cells; type: in vitro ADME; settings: end of 4 hours of incubation, read-out: hydrolysis of the pro-drug
# Procedure: as §1
# Bone marrow cells were obtained from femurs of 8-week old CD-1 mice. The femurs were removed asceptically and rinsed in RPMI-1640. Bone marrow cells were flushed with medium by using a 19-gauge needle and a single cell suspension was made by pipette action. These cells were used for hydrolytic experiments similar to described above for PBL.
# [4] = hydrolysis of DP-AZT by human plasma in vitro; type: in vitro ADME; settings: up to 4 hours in incubation
# [5] = hydrolysis of DP-AZT by rat liver microsomes; type: in vitro ADME; settings: 15.5 mg protein/ml, 37° C., 0 to 4 h
# Procedure: as §1
# To 900 μl of rat liver microsomes containing 15.5 mg protein/ml (Wong et al., Biochem. Pharmacol. 37:473, 1988), 100 μl of DP-AZT (2 mg/ml dissolved in dimethylsulfoxide) was added and incubated at 37° C. in a water bath. At various time intervals (0 to 4 h) 100 μl of sample was withdrawn and added immediately to ice-cold methanol (400 μl).
# mouse bone marrow cells = test: bone marrow toxicity: inhibition of [3H]-thymidine uptake in murine bone marrow cells; type: cell-based; settings: for less inhibition of [3H]-thymidine incorporation into bone marrow cells than AZT: relative to AZT, 60 h exposure, 12 h pulse
# Procedure: The percent inhibition of [^3 H]-thymidine uptake was used as an indication of bone marrow toxicity (FIG. 5).
# The bone marrow cells were obtained from CD-1 mice as described under Section 6.2.3, supra. Approximately 2×10^5 cells in 100 μl of medium were plated in a 96-well plate, 100 μl of drug solution at various concentrations (0-500 μM) was added, and the plate was incubated at 37° C. for 60 hr. [^3 H]-Thymidine (0.2 μc/well, specific activity 30 c/mmole) was pulsed for 12 hr, and at the end of 72 hr cells were harvested by using Skatron 7019 cell harvester.
# HIV-1 = test: inhibition of HIV-1 replication in PBL (p24 antigen in culture supernatant); type: cell-based; settings: for P24 antigen in culture supernatant: drug-free control 372,835 pg/ml
# Procedure: The concentration of virus-specificp24 antigen in the culture, and, therefore the ability of each drug to inhibit HIV replication was measured by their ability to inhibit production of the p24 antigen.
# Inhibition of HIV-1 replication was determined using PBL from seronegative donors. PBL activated with 2 μg/ml PHA for 72 hrs were washed with medium and 10×10^6 cells were incubated for 4 hr at 37° C. (Mitsuya et al., PNAS USA 82:7096, […]) in 5 ml medium containing the appropriate concentration of the drug. The cells were then infected with 10^4 TCID50 of HIV (isolated CD 451) by the addition of 0.1 ml of virus preparation and gentle rocking of the cultures of 15 min intervals for 90 min at room temperature. The fluid volume was increased to 10ml and the cultures maintained at 37° C. in a humidified 5% CO2 -in-air atmosphere. On day 3 post-infection, half the cell-free fluid in each culture was removed and replaced with fresh medium containing the respective drug. The extent of HIV replication in a control and the experimental cultures was evaluated 7 days post-infection by quantifying the concentration of HIV-specific p24 antigen in an undiluted and 5-fold serial dilutions of the culture supernatants using commercial antigen-capture assay kits (DuPont, Billerica, Mass.). The concentration of HIV-specific p24 antigen in the 7 day supernatant fluid of a drug-free control culture was 372,835 pg/ml.
# [6] = physical and chemical stability; type: physicochemical
# Description: The general pattern of synthesis of DP-AZT is outlined in FIG. 1. Treatment of 3,-azido-2',3'-dideoxythymidine in the presence of DCC and 4-dimethyl amino pyridine in ethyl acetate yield the nicotinyl ester. The ester is then quarternized by refluxing it in acetone with methyl iodide. […] In addition to DP-AZT, other derivatives at the N-methyl site in particular can also be prepared.
# AIDS = settings: cited from earlier work
# [7] = Richman et al. 1987; cited from earlier work
# p24 gag protein of HIV = settings: in vitro; Mitsuya et al. 1985; cited from earlier work
# [8] = in vivo; cited from earlier work
# [9] = test system: retrovirally infected mice; settings: Watson et al. 1988; cited from earlier work
# HIV = settings: Yamamoto et al. 1986; cited from earlier work
# [10] = 0.5 μM drug, 7 days post-infection
# [11] = 5.0 μM drug, 7 days post-infection
# [12] = 10.0 μM drug, 7 days post-infection
# [13] = Human immunodeficiency virus 1, PBL, 168 h, 0.5 μM drug, 7 days post-infection, read-out: p24 antigen, % reduction of control
# [14] = Human immunodeficiency virus 1, PBL, 168 h, 5.0 μM drug, 7 days post-infection, read-out: p24 antigen, % reduction of control
# [15] = Human immunodeficiency virus 1, PBL, 168 h, 10.0 μM drug, 7 days post-infection, read-out: p24 antigen, % reduction of control
compound,measurement,setting,value
Cc1cn([C@H]2C[C@H](N=[N+]=[N-])[C@@H](COP(=O)(O)OP(=O)(O)OP(=O)(O)O)O2)c(=O)[nH]c1=O [AZT triphosphate],"reverse transcriptase inhibition, in words",reverse transcriptase,competitive inhibitor of reverse transcriptase
"Cc1cn([C@H]2C[C@H](N=[N+]=[N-])[C@@H](COC(=O)C3=CN(C)C=CC3)O2)c(=O)[nH]c1=O [DP-AZT, 5,-[(1,4-dihydro-1-methyl-3-pyridinylcarbonyl)oxy] -3,-azido-2',3'dideoxythymidine]",time to maximum intracellular concentration,"H9 cells; 5 μM, H-9 cells",2 h
same,uptake linearity,"H9 cells; 5 μM, H-9 cells",linear for one hour
same,higher intracellular concentration than [3H]-AZT,"H9 cells; H-9 cells, 5 μM, relative to AZT",at least 50%
same,time to maximum intracellular concentration,"[1]; 5 μM, PBL",2 h
same,uptake linearity,"[1]; 5 μM, PBL",linear for one hour
same,higher intracellular concentration than [3H]-AZT,"[1]; PBL, 5 μM, relative to AZT",at least 50%
same,hydrolysis of the pro-drug,[2],complete hydrolysis of the pro-drug within four hours
same,"metabolised at 4 h, 500 µM",[3],50%
same,hydrolysis by human plasma in vitro,[4],not hydrolyzed
same,hydrolysis by rat liver microsomes,[5],hydrolyzed by rat-liver microsomes (FIG. 4) in a manner similar to that observed in PBL
same,less inhibition of [3H]-thymidine incorporation into bone marrow cells than AZT,mouse bone marrow cells; 5 μM,44%
same,less inhibition of [3H]-thymidine incorporation into bone marrow cells than AZT,mouse bone marrow cells; 10 μM,59%
same,"bone marrow toxicity relative to AZT, in words",mouse bone marrow cells; 5 and 10 μM,significantly less toxic than AZT
same,"efficacy against HIV-1 relative to AZT, in words",HIV-1; 0.5 μM,significantly greater efficacy against HIV-1 than AZT had
same,P24 antigen in culture supernatant,HIV-1; [10],"3,310 pg/ml"
same,P24 antigen in culture supernatant,HIV-1; [11],475 pg/mL
same,P24 antigen in culture supernatant,HIV-1; [12],215 pg/mL
same,inhibition at 0.5 µM,HIV-1; [13],99.1%
same,inhibition at 5 µM,HIV-1; [14],99.9%
same,inhibition at 10 µM,HIV-1; [15],99.9%
same,inhibition at 0.5 µM,"HIV-1; Human immunodeficiency virus 1, read-out: inhibition (p24 antigen)",99%
same,air oxidation stability,[6]; during crystallization and drying,stable compound which does not undergo air oxidation
same,result of attempted chemical oxidation,[6]; hydrogen peroxide or sodium nitrate solution,hydrolysis of the ester producing AZT
Cc1cn([C@H]2C[C@H](N=[N+]=[N-])[C@@H](COC(=O)c3ccc[n+](C)c3)O2)c(=O)[nH]c1=O [compound 2],hygroscopicity,[6],hygroscopic
"Cc1cn([C@H]2C[C@H](N=[N+]=[N-])[C@@H](CO)O2)c(=O)[nH]c1=O [AZT, 3'-azido-2',3'-dideoxythymidine, reference compound]",time to maximum intracellular concentration,"H9 cells; 5 μM, H-9 cells",2 h
same,uptake linearity,"H9 cells; 5 μM, H-9 cells",linear for one hour
same,time to maximum intracellular concentration,"[1]; 5 μM, PBL",2 h
same,uptake linearity,"[1]; 5 μM, PBL",linear for one hour
same,P24 antigen in culture supernatant,HIV-1; [10],"67,273 pg/ml"
same,P24 antigen in culture supernatant,HIV-1; [11],"1,758 pg/ml"
same,P24 antigen in culture supernatant,HIV-1; [12],"2,235 pg/ml"
same,inhibition at 0.5 µM,HIV-1; [13],82%
same,inhibition at 5 µM,HIV-1; [14],99.5%
same,inhibition at 10 µM,HIV-1; [15],99.4%
same,"reverse transcriptase inhibition, in words",reverse transcriptase,does not inhibit reverse transcriptase
same,"mortality in comparison with placebo, in words",AIDS; Fischl et al. 1987,significant differences in mortality
same,"progression of disease, in words","AIDS; individuals with AIDS-related complex, Fischl et al.",delay the progression of the disease
same,major adverse reactions,[7],"nausea, myalgia and insomnia"
same,"expression of p24 gag protein of HIV, in words",p24 gag protein of HIV,blocks the expression of the p24 gag protein of HIV
same,"half-life in plasma, in words",[8],very short half-life in plasma
Vitamin A,"activated macrophages and death rate, in words",[9],increased numbers of activated macrophages and decreased death rate
CC1=C(/C=C/C(C)=C/C=C/C(C)=C/C(=O)O)C(C)(C)CCC1 [Retinoic acid],"HIV replication, in words",HIV,inhibit HIV replication somewhat
Cc1cn([C@H]2C[C@H](N=[N+]=[N-])[C@@H](COC(=O)CN3CCN(c4ccccc4)CC3)O2)c(=O)[nH]c1=O [N-phenylpiperazine analogue],"cellular uptake relative to AZT, in words",H9 cells,improved cellular uptake
Cc1cn([C@H]2C[C@H](N=[N+]=[N-])[C@@H](COC(=O)C(N)Cc3ccc(O)cc3)O2)c(=O)[nH]c1=O (some centres unmarked) [tyrosine AZT analogue],"cellular uptake relative to AZT, in words",H9 cells,improved over AZT with respect to cellular uptake
Cc1cn([C@H]2C[C@H](N=[N+]=[N-])[C@@H](COC(=O)C(N)Cc3ccccc3)O2)c(=O)[nH]c1=O (some centres unmarked) [phenylalanine AZT analogue],"cellular uptake relative to AZT, in words",[1]; PBL (FIG. 8),improved over AZT with respect to cellular uptake
CC1=C(/C=C/C(C)=C/C=C/C(C)=C/C(=O)OC[C@H]2O[C@@H](n3cc(C)c(=O)[nH]c3=O)C[C@@H]2N=[N+]=[N-])C(C)(C)CCC1 [retinoic acid ester of AZT],"cellular uptake relative to AZT, in words",H9 cells,a substantial improvement over cellular uptake of AZT
